Data as given in US20250090597A1, “AIRWAY BASAL CELL ENGRAFTMENT METHODS” (TRUSTEES OF BOSTON UNIVERSITY, priority 2023, published 2025).

Assays:
[1] = test system: tracheal airway epithelial cells; assay: Post-polidocanol injury mouse tracheal histological time series; type: in vivo
From the text: Intra-tracheal delivery of polidocanol was employed to ablate tracheal airway epithelial cells (see e.g., FIG. 9A). […] Am J Resp Cell Mol 24, 662-670; Engler et al. (2020). Cell Reports 33, 108553; the contents of which are incorporated herein by reference in their entireties. It is contemplated herein that acute epithelial sloughing can generate a temporarily exposed niche on the airway basement membrane for exogenous cells to land. To determine the time window for BC transplantation post polidocanol-mediated injury, tracheal tissues were analyzed in a time series following injury. […] Therefore, donor cells were transplanted five hours post-injury.
Adult recipient mice (8-16 weeks old) were used for all transplantation studies. Tracheal epithelial injury was induced in isoflurane anesthetized mice by intratracheal delivery of 20 μL of 2% polidocanol using the tongue pull method, followed by recovery prior to cell delivery 5-5.5 hours later. Specifically, the recipient animal was anesthetized with 3% isoflurane until the animal developed exaggerated respiratory movements at rates of 1-1.5 breath/second. Then the mouse was lightly restrained by operator, while a second operator delivered polidocanol solution directly into the posterior oropharynx of the mouse. The nose was gently held to encourage the animal to aspirate through the […], about 2-4 times, or until the liquid was no longer visible. For cell transplants, mice were re-anesthetized and 6×10^6 primary BCs or iBCs suspended in 20 μL of DMEM were intratracheally instilled as above.

[2] = test system: tracheal airway epithelial cells; conditions: Borthwick et al. 2001; Engler et al. 2020; cited from earlier work

Structure (SMILES): CCCCCCCCCCCCOCCOCCOCCOCCOCCOCCOCCOCCOCCO [polidocanol]
- tracheal epithelium state after polidocanol exposure ([1]; 12 hours after polidocanol exposure): patches of rounded or cuboidal epithelial cells characterized the regenerating epithelium
- tracheal epithelial sloughing after polidocanol exposure ([1]; five hours after polidocanol exposure): epithelial sloughing was more complete with sporadic residual individual cells and more denuded basement membrane
- tracheal epithelium state after polidocanol exposure ([1]; seven hours after polidocanol exposure): residual cells had flattened to cover the basement membrane
- tracheal epithelial sloughing after polidocanol exposure ([1]; three hours after polidocanol exposure, 20 μL of 2% polidocanol intratracheal, H&E): Extensive epithelial sloughing
- time to tracheal epithelial sloughing after polidocanol exposure [2]: within three hours
